According to patent US20260285849A1, “METHYLOPHIOPOGONONE A DERIVATIVE, AND PREPARATION AND USE THEREOF” (INSTITUTE OF MATERIA MEDICA, CHINESE ACADEMY OF MEDICAL …, priority 2022, published 2026):
Read-outs that look alike come from different tables or passages of the source. Marks after values point to notes of the source that are not given here.

Legend:
[1] = test system: H9C2 cardiomyocytes; test: Angiotensin II (Ang II)-induced cardiomyocyte hypertrophy model, crystal violet, cell surface area; assay type: cell-based, rat; conditions: for number of cardiomyocytes (decrease in cell number caused by AngII): 0.5 μM and 1 μM, 40 μM AngII 24 h; for surface area of a single cardiomyocyte, View 1 / surface area of a single cardiomyocyte, View 2 / surface area of a single cardiomyocyte, View 3 / surface area of a single cardiomyocyte, View 4 / surface area of a single cardiomyocyte, View 5 / Myocardial surface area: 40 μM Ang II 24 h; for surface area of a single cardiomyocyte, View 1: field of view 1; for surface area of a single cardiomyocyte, View 2: field of view 2; for surface area of a single cardiomyocyte, View 3: field of view 3; for surface area of a single cardiomyocyte, View 4: field of view 4; for surface area of a single cardiomyocyte, View 5: field of view 5; for Myocardial surface area: mean of 5 views
Description: Adjust the H9C2 cardiomyocytes in the logarithmic growth phase to a density of 1.2×10^5 cells/well and inoculate them into six-well plates. […] After culturing for 24 hours, the drug administration groups are added with 40 μM Ang II and the corresponding concentrations of drugs. The Ang II+diltiazem 10 μM group is added with 40 μM Ang II and 10 μM diltiazem. The Ang II model group is added with 40 μM Ang II and an equal volume of DMSO. The blank control group is added with an equal volume of DMSO. Then, continue culturing for 24 hours. Discard the culture medium, wash the cells 3 times with PBS. Add 1 mL of methanol to each well and fix the cells at −20° C. for 20 minutes, and then let them return to room temperature. After discarding the methanol, add 1 mL of 0.5% crystal violet staining solution to each well and stain for 10 minutes. Wash the cells with clean water and take pictures under an inverted microscope. Randomly select fields of view for photographing. Use Image J software to measure the sum of the surface areas of all cardiomyocytes in the field of view and count the number of cells in the field of view at the same time to obtain the surface area of each cardiomyocyte. The surface area of a single cardiomyocyte=the sum of the surface areas of all cardiomyocytes in the field of view/the number of cardiomyocytes in the field of view.

[2] = test system: mice with isoproterenol (ISO)-induced ischemic heart disease; test: ISO-induced ischemic heart disease mouse model: serum ANP and NT-proBNP (ELISA); assay type: in vivo; conditions: ISO 40 mg/kg s.c. 7 times
Description: (§1) Male C57BL/6 mice were allowed to acclimate to the environment and then randomly divided into 9 groups, namely the blank control group, the ISO model group, the ISO+diltiazem 20 mg/kg positive control drug group, the ISO+Formula I (0.1, 0.5, 2 mg/kg) groups, and the ISO+Formula II (0.1, 0.5, 2 mg/kg) groups. Mice in the drug administration groups were intragastrically administered the corresponding doses of Formula I and Formula II compounds once a day at the same time. Mice in the positive drug diltiazem group were intragastrically administered the corresponding dose of diltiazem once a day. Mice in the blank control group and the model group were given the same amount of solvent (0.5% CMC-Na). The administration volume was 10 mL/kg, and the administration was continuous for 11 days.
(§2) From the 4th to the 10th day of drug administration, ISO modeling was carried out. The blank control group was subcutaneously injected with normal saline, and mice in the other groups were subcutaneously injected with ISO at a dose of 40 mg/kg (modeling was performed 2 hours after drug administration), for a total of 7 times.
Detection of Myocardial Hypertrophy/Heart Failure Biomarkers: After the drug administration ended, the animals' eyes were enucleated to collect blood. The blood was left to stand at room temperature for 2 hours, and then centrifuged at 3500 rpm for 20 minutes to separate the serum. The contents of serum ANP and NT-proBNP were determined according to the instructions of the ELISA kit.

[3] = test system: mice with isoproterenol (ISO)-induced ischemic heart disease; test: ISO-induced ischemic heart disease mouse model: serum CK-MB (ELISA); assay type: in vivo
Description: as §1, §2
Myocardial enzyme CK-MB detection: After the administration ended, blood was collected from the animals by enucleation. The blood was left to stand at room temperature for 2 hours, and then centrifuged at 3500 rpm for 20 minutes to separate the serum. The content of CK-MB in the serum was determined according to the instructions of the ELISA kit.

[4] = test system: mice with isoproterenol (ISO)-induced ischemic heart disease; test: ISO-induced ischemic heart disease mouse model: Ca2+ in myocardial tissue; assay type: in vivo
Description: as §1, §2
Calcium ion detection in myocardial tissue: After the experiment ended, some myocardial tissue was taken to prepare a 10% myocardial tissue homogenate with ultrapure water. The homogenate was centrifuged at 1200 rpm for 20 minutes at 4° C. to separate the supernatant of the myocardial tissue homogenate. The calcium ion content was determined according to the kit instructions; protein quantification was performed using the BCA protein assay method.

[5] = test system: H9C2 cardiomyocytes; conditions: 6 h hypoxia, 12 h reoxygenation, CCK 450 nm
Description: (§3) H9C2 cardiomyocytes in the logarithmic growth phase were seeded into 96-well plates at a density of 7×10^4 cells/mL, with 100 μL per well.
(§4) After 24 hours of culture, the culture medium of the H/R and drug-treated groups was replaced with serum-free glucose-free DMEM medium (100 μL per well). The cells were then placed in an anaerobic incubator and cultured under hypoxic conditions in a 37° C. cell culture incubator. After 6 hours, the supernatant of the H/R and drug-treated groups was removed and replaced with high-glucose medium containing 10% fetal bovine serum (100 μL per well). Each drug-treated group received the corresponding concentration of the drug, while the H/R model group and the blank control group received an equal volume of DMSO.
(§5) After removing the supernatant, 100 μL of CCK solution (the volume of CCK accounted for 10% of the DMEM culture medium volume) was added to each well. The cells were cultured in the cell culture incubator for 1 hour, and the absorbance was measured at 450 nm using a microplate reader to calculate the cell viability. Cell viability was calculated as follows: Cell viability (%)=(Experimental well-Blank well)/(Control well-Blank well)×100%.

[6] = test system: Rat H9C2 cardiomyocytes; conditions: 50 μM Ang II 24 h, MTT 570 nm
Description: Rat H9C2 cardiomyocytes in the logarithmic growth phase were seeded at a density of 7×10^4 cells/mL into 96-well plates, with 100 μL per well. […] After 24 hours of culture, the drug treatment groups were respectively added with 50 μM Ang II and the corresponding concentration of the drug. The Ang II model group was added with 50 μM Ang II and an equal volume of DMSO, and the blank control group was added with an equal volume of DMSO. Then, the cells were cultured for another 24 hours. After removing the supernatant, 100 μL of MTT solution (0.5 mg/mL) was added to each well, and the plates were placed in an incubator for 4 hours. After removing the supernatant again, 150 μL of DMSO was added to each well, and the mixture was shaken and mixed evenly for 10 minutes. The absorbance was measured at 570 nm using a microplate reader to calculate the cell viability.
Cell viability (%)=[(As−Ab)/(Ac−Ab)]×100% • As: Experimental well (culture medium containing cells, MTT, Ang II); • Ac: Control well (culture medium containing cells, MTT, without Ang II); • Ab: Blank well (culture medium without cells, MTT, without Ang II).

[7] = test system: H9C2 cardiomyocytes; test: cells; conditions: Rattus norvegicus, H9c2, read-out: Cell viability
Description: as §3, §4, §5

[8] = 0.1 mg/kg intragastric once a day 11 days
[9] = 0.5 mg/kg intragastric once a day 11 days
[10] = 2 mg/kg intragastric once a day 11 days

For `Cc1c(O)cc(O)c2c(=O)c(Cc3ccc4c(c3)OCO4)coc12` [Formula II, 3-(benzo[d][1,3]dioxol-5-ylmethyl)-5,7-dihydroxy-8-methyl-4H-chromen-4-one], the “number of cardiomyocytes (decrease in cell number caused by AngII)” value ([1]; 0.1 μM) was “significantly improve the decrease in cell number caused by AngII”, the “surface area of a single cardiomyocyte, View 1” value (shortened to “surface area … View 1”) ([1]; 0.1 μM) was 346.49 μm^2 and the “surface area of a single cardiomyocyte, View 2” value (shortened to “surface area … View 2”) ([1]; 0.1 μM) was 347.86 μm^2. The “surface area of a single cardiomyocyte, View 3” value (shortened to “surface area … View 3”) ([1]; 0.1 μM) was 326.61 μm^2, the “surface area of a single cardiomyocyte, View 4” value (shortened to “surface area … View 4”) ([1]; 0.1 μM) was 381.47 μm^2 and the “surface area of a single cardiomyocyte, View 5” value (shortened to “surface area … View 5”) ([1]; 0.1 μM) was 353.63 μm^2. For the same molecule, the Myocardial surface area ([1]; 0.1 μM) was 351.21 ± 17.66^### μm^2, the “surface area … View 1” value ([1]; 0.5 μM) was 420.10 μm^2 and the “surface area … View 2” value ([1]; 0.5 μM) was 338.84 μm^2. For the same molecule, the “surface area … View 3” value ([1]; 0.5 μM) was 355 μm^2, the “surface area … View 4” value ([1]; 0.5 μM) was 334.83 μm^2 and the “surface area … View 5” value ([1]; 0.5 μM) was 342.18 μm^2. For the same molecule, the Myocardial surface area ([1]; 0.5 μM) was 358.19 ± 31.68^### μm^2, the “surface area … View 1” value ([1]; 1 μM) was 365.93 μm^2 and the “surface area … View 2” value ([1]; 1 μM) was 372.44 μm^2. For the same molecule, the “surface area … View 3” value ([1]; 1 μM) was 366.76 μm^2, the “surface area … View 4” value ([1]; 1 μM) was 392.9 μm^2 and the “surface area … View 5” value ([1]; 1 μM) was 373.9 μm^2. For the same molecule, the Myocardial surface area ([1]; 1 μM) was 374.39 ± 9.76^### μm^2, the ANP [2, 8] was 303.60 ± 37.76 pg/mL and the NT-proBNP [2, 8] was 34.07 ± 4.10 pg/mL. For the same molecule, the ANP [2, 9] was 264.38 ± 27.96 pg/mL, the NT-proBNP [2, 9] was 31.31 ± 2.24 pg/mL and the ANP [2, 10] was 258.19 ± 52.28 pg/mL. For the same molecule, the NT-proBNP [2, 10] was 31.12 ± 2.33 pg/mL, the CK-MB [3, 8] was 15.48 ± 1.76 ng/mL and the CK-MB [3, 9] was 12.89 ± 2.29 ng/mL. For the same molecule, the CK-MB [3, 10] was 12.91 ± 1.53 ng/mL, the “Ca^2+” value [4, 8] was 0.046 ± 0.015 mmol/gprot and the “Ca^2+” value [4, 9] was 0.054 ± 0.014 mmol/gprot. The “Ca^2+” value [4, 10] was 0.059 ± 0.009 mmol/gprot, the OD ([5]; 0.1 μM) was 0.630 ± 0.070 and the OD ([5]; 0.3 μM) was 0.612 ± 0.059. It also gave an OD ([5]; 1 μM) of 0.542 ± 0.075, an OD ([5]; 3 μM) of 0.640 ± 0.070 and an OD ([5]; 5 μM) of 0.466 ± 0.023. For the same molecule, the OD ([5]; 10 μM) was 0.498 ± 0.071, the OD ([6]; 0.1 μM) was 0.876 ± 0.044 and the OD ([6]; 0.3 μM) was 0.791 ± 0.062. The OD ([6]; 1 μM) was 0.835 ± 0.052, the OD ([6]; 3 μM) was 0.785 ± 0.048 and the OD ([6]; 10 μM) was 0.814 ± 0.053. For the same molecule, the viability at 0.1 µM [7] was 60.5%, the viability at 0.3 µM [7] was 58.8% and the viability at 1 µM [7] was 52.1%. For the same molecule, the viability at 3 µM [7] was 61.5%, the viability at 5 µM [7] was 44.8% and the viability at 10 µM [7] was 47.9%.

`O=c1c(Cc2ccc3c(c2)OCO3)coc2cc(O)cc(O)c12` [Formula I] was tested, and the “number of cardiomyocytes (decrease in cell number caused by AngII)” value ([1]; 0.1 μM) was “significantly improve the decrease in cell number caused by AngII”, the “surface area … View 1” value ([1]; 0.1 μM) was 362.68 μm^2 and the “surface area … View 2” value ([1]; 0.1 μM) was 351.69 μm^2. The “surface area … View 3” value ([1]; 0.1 μM) was 344.78 μm^2, the “surface area … View 4” value ([1]; 0.1 μM) was 338.55 μm^2 and the “surface area … View 5” value ([1]; 0.1 μM) was 410.64 μm^2. For the same molecule, the Myocardial surface area ([1]; 0.1 μM) was 361.67 ± 25.76^### μm^2, the “surface area … View 1” value ([1]; 0.5 μM) was 404.40 μm^2 and the “surface area … View 2” value ([1]; 0.5 μM) was 360.65 μm^2. For the same molecule, the “surface area … View 3” value ([1]; 0.5 μM) was 322.34 μm^2, the “surface area … View 4” value ([1]; 0.5 μM) was 283.2 μm^2 and the “surface area … View 5” value ([1]; 0.5 μM) was 334.96 μm^2. For the same molecule, the Myocardial surface area ([1]; 0.5 μM) was 341.11 ± 40.33^### μm^2, the “surface area … View 1” value ([1]; 1 μM) was 312.97 μm^2 and the “surface area … View 2” value ([1]; 1 μM) was 300.38 μm^2. The “surface area … View 3” value ([1]; 1 μM) was 328.43 μm^2, the “surface area … View 4” value ([1]; 1 μM) was 331.13 μm^2 and the “surface area … View 5” value ([1]; 1 μM) was 303.72 μm^2. The Myocardial surface area ([1]; 1 μM) was 315.33 ± 12.53^### μm^2, the ANP [2, 8] was 301.02 ± 58.98 pg/mL and the NT-proBNP [2, 8] was 39.35 ± 2.83 pg/mL. It also gave an ANP [2, 9] of 295.85 ± 57.72 pg/mL, an NT-proBNP [2, 9] of 43.52 ± 6.06 pg/mL and an ANP [2, 10] of 289.01 ± 50.17 pg/mL. The NT-proBNP [2, 10] was 40.47 ± 7.15 pg/mL, the CK-MB [3, 8] was 14.86 ± 2.90 ng/mL and the CK-MB [3, 9] was 13.71 ± 2.75 ng/mL. The CK-MB [3, 10] was 15.05 ± 2.49 ng/mL, the “Ca^2+” value [4, 8] was 0.050 ± 0.008 mmol/gprot and the “Ca^2+” value [4, 9] was 0.046 ± 0.010 mmol/gprot. The “Ca^2+” value [4, 10] was 0.058 ± 0.009 mmol/gprot, the OD ([5]; 0.1 μM) was 0.630 ± 0082 and the OD ([5]; 0.3 μM) was 0.628 ± 0.061. The OD ([5]; 1 μM) was 0.576 ± 0.063, the OD ([5]; 3 μM) was 0.620 ± 0.069 and the OD ([5]; 5 μM) was 0.566 ± 0.074^(p = 0.07). For the same molecule, the OD ([5]; 10 μM) was 0.575 ± 0.091, the OD ([6]; 0.1 μM) was 0.809 ± 0.060 and the OD ([6]; 0.3 μM) was 0.780 ± 0.046. The OD ([6]; 1 μM) was 0.791 ± 0.043, the OD ([6]; 3 μM) was 0.816 ± 0.035 and the OD ([6]; 10 μM) was 0.823 ± 0.048. The viability at 0.1 µM [7] was 60.6%, the viability at 0.3 µM [7] was 60.3% and the viability at 1 µM [7] was 55.4%. For the same molecule, the viability at 3 µM [7] was 59.6%, the viability at 5 µM [7] was 54.4% and the viability at 10 µM [7] was 55.3%.
